This passage reports IC50, Activity and Kd results from ChEMBL document CHEMBL5104187, “Discovery of 2-(1-(3-Chloro-4-cyanophenyl)-1H-pyrazol-3-yl)acetamides as Potent, Selective, and Orally Available Antagonists Targeting the Androgen Receptor” (J Med Chem, 2022).

Calls of active or inactive are those of the source. The calls are words filed in the database; no cut-off is given here.

Series [1] has as its system LNCaP. The experiment in a line: Cytotoxicity against human LNCAP cells assessed as inhibition of cell proliferation by MTT assay. The class given is functional, cell-based. In general terms: Formazan colour is commonly taken as a measure of viable cells.
Series [2] is described as follows: Toxicity in CB17 SCID mouse xenografted with human LNCAP cells assessed as body weight loss at 100 mg/kg/day,po measured upto 4 weeks. The settings on record: in vivo, 672 h. Format: organism-based. On the technique in general: Xenograft models place foreign cells or tissue in a host animal.
Series [3] addresses T1, Androgen receptor (Homo sapiens, UniProt P10275, F877L). As to the kind of experiment: Antagonist activity at androgen receptor F877L mutant in human PC-3 cells assessed as inhibition of transcriptional activity measured after 24 hrs by luminescence based microplate reader assay. Format: cell-based.
Series [4] is described as follows: Antagonist activity at mineralocorticoid receptor (unknown origin) transfected in PC-3 cells assessed as inhibition of […]-stimulated transcriptional activity after 3 days by dual luciferase reporter assay. Format: cell-based. The settings on record: Homo sapiens, PC-3, 72 h. For orientation: Reporter assays use an easily measured gene product as a stand-in for the process of interest.

In series [5] the test system is LNCaP. The experiment in a line: Antitumor activity against human LNCAP cells xenografted in CB17-SCID mouse model assessed as inhibition of tumor growth at 100 mg/kg/day, po measured upto 4 weeks. The class given is functional, organism-based.
The target of series [6] is T2, Androgen receptor (Homo sapiens, UniProt P10275).
T2 sequence (P10275 whole entry): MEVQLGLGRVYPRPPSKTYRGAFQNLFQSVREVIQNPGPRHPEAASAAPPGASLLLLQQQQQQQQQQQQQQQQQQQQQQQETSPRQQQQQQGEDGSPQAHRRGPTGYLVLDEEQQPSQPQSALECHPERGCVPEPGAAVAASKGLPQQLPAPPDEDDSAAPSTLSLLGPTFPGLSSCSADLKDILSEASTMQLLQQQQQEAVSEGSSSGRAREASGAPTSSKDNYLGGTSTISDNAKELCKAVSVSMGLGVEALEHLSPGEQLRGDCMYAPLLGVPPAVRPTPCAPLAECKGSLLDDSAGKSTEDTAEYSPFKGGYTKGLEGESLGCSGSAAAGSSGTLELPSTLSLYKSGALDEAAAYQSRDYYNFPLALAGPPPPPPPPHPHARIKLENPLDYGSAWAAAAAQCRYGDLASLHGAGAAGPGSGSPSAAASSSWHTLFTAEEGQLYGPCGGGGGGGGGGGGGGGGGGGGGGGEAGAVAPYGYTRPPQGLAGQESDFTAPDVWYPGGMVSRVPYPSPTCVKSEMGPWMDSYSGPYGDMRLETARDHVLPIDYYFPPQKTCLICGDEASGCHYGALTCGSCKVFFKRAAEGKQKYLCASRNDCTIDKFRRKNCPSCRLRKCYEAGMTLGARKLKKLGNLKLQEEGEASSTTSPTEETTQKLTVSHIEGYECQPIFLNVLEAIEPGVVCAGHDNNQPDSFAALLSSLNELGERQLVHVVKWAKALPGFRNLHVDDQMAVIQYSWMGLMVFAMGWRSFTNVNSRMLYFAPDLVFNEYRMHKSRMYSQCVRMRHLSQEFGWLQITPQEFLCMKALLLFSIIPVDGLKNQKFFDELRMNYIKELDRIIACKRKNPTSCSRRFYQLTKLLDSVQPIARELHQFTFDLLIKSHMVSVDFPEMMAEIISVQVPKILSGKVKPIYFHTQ
As to the kind of experiment: Antagonist activity at androgen receptor (unknown origin) in human LNCap-ARR2PB-eGFP cells by measuring fluorescence intensity measured after 3 days by transcriptional assay. The class given is cell-based.

The target of series [7] is T3, Androgen receptor (Homo sapiens, UniProt P10275, F877L/T878A). As to the kind of experiment: Antagonist activity at androgen receptor F876L/T877A mutant in human PC-3 cells assessed as inhibition of transcriptional activity measured after 24 hrs by luminescence based microplate reader assay. Format: cell-based.
The target of series [8] is T2, Androgen receptor.
The nature of series [9]: Cytotoxicity against human GES1 cells assessed as inhibition of cell proliferation by MTT assay. Format: toxicity, cell-based.
Series [10] deals with LNCaP. The experiment in a line: Antitumor activity against human LNCAP cells xenografted in CB17-SCID mouse model assessed as inhibition of tumor growth at 40 mg/kg/day, po measured upto 4 weeks. The class given is functional, organism-based.
Series [11] is described as follows: Cytotoxicity against human Chang liver cells assessed as inhibition of cell proliferation by MTT assay. Format: toxicity, cell-based.
Series [12] deals with T4, Androgen receptor (Homo sapiens) (UniProt P10275).
T4 sequence (whole entry): T2 sequence (P10275 whole entry)
As to the kind of experiment: Antagonist activity at human AR AF2 assessed as inhibition of fluorescent-labelled D11-FxxLF peptide Co-activator to receptor by TR-FRET assay. The note with it: filed as antagonist.

A short description of series [13]: Inhibition of PSA secretion in human LNCaP ARR2PB-eGFP cells measured after 3 days by immuno assay. The note with it: 72 h. Format: functional, cell-based.
The target of series [14] is T1, Androgen receptor. As to the kind of experiment: Antagonist activity at androgen receptor F877L mutant (unknown origin) expressed in PC-3 cells assessed as inhibition of transcriptional activity measured after 24 hrs by dual luciferase assay. Format: cell-based.
Series [15] can be described thus: Antagonist activity at androgen receptor T878G mutant (unknown origin) expressed in PC-3 cells assessed as inhibition of transcriptional activity measured after 24 hrs by dual luciferase assay. The note with it: Homo sapiens, PC-3, 24 h. Format: cell-based.
For series [16], the target named is T3, Androgen receptor. The experiment in a line: Antagonist activity at androgen receptor F877L/T877A dual mutant (unknown origin) expressed in PC-3 cells assessed as inhibition of transcriptional activity measured after 24 hrs by dual luciferase assay. Format: cell-based.

T1 sequence (P10275 whole entry F877L): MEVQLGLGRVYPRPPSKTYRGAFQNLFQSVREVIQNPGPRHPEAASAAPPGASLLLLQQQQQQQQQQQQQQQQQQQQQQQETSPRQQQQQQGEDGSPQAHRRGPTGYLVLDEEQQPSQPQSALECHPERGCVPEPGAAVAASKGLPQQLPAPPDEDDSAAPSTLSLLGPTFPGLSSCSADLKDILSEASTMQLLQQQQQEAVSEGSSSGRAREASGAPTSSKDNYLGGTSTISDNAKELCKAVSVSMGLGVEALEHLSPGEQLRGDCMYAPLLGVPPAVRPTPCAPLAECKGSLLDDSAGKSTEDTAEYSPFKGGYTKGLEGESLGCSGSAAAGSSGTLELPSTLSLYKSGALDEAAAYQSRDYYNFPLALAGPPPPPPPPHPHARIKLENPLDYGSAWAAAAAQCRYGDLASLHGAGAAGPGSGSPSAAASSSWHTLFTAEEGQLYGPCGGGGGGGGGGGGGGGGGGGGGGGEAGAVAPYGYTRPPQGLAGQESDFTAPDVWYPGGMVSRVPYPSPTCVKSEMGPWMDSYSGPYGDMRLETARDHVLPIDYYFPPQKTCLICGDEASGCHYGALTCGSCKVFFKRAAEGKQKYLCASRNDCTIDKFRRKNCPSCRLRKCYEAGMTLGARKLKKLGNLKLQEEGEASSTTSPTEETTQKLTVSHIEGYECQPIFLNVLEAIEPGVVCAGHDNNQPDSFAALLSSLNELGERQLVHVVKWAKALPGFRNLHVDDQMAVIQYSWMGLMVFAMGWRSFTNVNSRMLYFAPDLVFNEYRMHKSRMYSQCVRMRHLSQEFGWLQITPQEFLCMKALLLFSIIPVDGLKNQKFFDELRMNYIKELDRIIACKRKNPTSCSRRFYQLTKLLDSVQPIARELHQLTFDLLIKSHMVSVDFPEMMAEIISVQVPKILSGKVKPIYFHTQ
T3 sequence (P10275 whole entry F877L/T878A): as the sequence (P10275 whole entry F877L) above, with T878A counted along it

For the compound `N#Cc1ccc(-n2ccc(CC(=O)Nc3ccc(F)nc3)n2)cc1Cl`, the IC50 (in general, the concentration needed to halve the response being measured) with LNCaP [1] was 6.23 µM; at Androgen receptor [3] it was 0.17 µM; in [4], 5.54 µM; against Androgen receptor [6], 0.069 µM; on Androgen receptor [7] it was 0.27 µM; in [9], more than 1000 µM. Moreover, the IC50 is more than 1000 µM in series [11]; 0.89 µM in [13]; 0.46 µM at Androgen receptor [14]; 0.045 µM in [15]; 0.27 µM at Androgen receptor [16]. Also, in [2], the Activity result is on record as “Non-Toxic”. Besides, the outcome (in the series on LNCaP [5]; in the series on LNCaP [10]; in series [12]) was Active. The Kd (usually the free concentration of one partner at which half of the binding sites on the other are occupied at equilibrium, for simple one-to-one binding) on Androgen receptor [8] turned out to be 20.5 µM.
